The values below come from PMC4184574, “Enantioselectivity in the cytochrome P450-dependent conversion of tegafur to 5-fluorouracil in human liver microsomes” (Pharmacology Research & Perspectives, 2013).

The data set has as its target T1, CYP2A6 (Homo sapiens, UniProt P11509).
T1 sequence (P11509 1-494): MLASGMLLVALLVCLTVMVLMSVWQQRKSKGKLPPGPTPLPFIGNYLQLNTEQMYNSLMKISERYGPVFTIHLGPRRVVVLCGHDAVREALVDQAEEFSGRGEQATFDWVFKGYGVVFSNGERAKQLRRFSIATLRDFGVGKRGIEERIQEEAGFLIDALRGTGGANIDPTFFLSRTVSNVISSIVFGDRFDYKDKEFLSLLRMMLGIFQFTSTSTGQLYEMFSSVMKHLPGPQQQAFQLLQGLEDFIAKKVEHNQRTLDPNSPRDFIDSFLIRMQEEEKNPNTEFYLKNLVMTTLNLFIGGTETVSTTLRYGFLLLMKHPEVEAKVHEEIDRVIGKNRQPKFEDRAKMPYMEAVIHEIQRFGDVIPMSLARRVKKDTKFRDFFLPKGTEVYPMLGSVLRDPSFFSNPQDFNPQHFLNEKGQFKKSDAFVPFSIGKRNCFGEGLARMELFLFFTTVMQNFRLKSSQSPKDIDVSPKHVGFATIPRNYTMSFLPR
Kind of data set: 5-FU formation from FT enantiomers by cDNA-expressed CYP2A6 (kinetics, velocity, RAF contribution). Particulars: for CYP contribution: CYP2A6, RAF method, 30 μmol/L. The source says:
Human hepatic 9000g supernatant (S9) and cytosolic fraction were purchased from XenoTech, LLC. (pooled preparations from 20 donors; Kansas City, KS). Human hepatic microsomes from five individuals (HG32, HH94, HH81, HH74, and HH31), a pooled preparation from 150 donors, and microsomes prepared from insect cell lines expressing CYP1A2, 2A6, 2B6, 2C8, 2C9, 2C19, 2D6, 2E1, and 3A4 were purchased from BD Gentest. Insect microsomes expressing only NADPH-P450 oxidoreductase and cytochrome b5 were also used as control. These enzymes were stored at −80°C until use.
Metabolic reaction by S9 and cytosol (each 2 mg protein/mL) was carried out in 100 mmol/L phosphate (pH 7.4) because TPase requires phosphate ions for catalyzing the reaction. In some cases, insect microsomes expressing recombinant CYP isoforms (20 pmol/mL) were added to the incubation mixtures in either 50, 100 mmol/L phosphate (pH 7.4) or 100 mmol/L Tris (pH 7.4), depending on supplier's recommendation. Microsomal protein concentrations of all cDNA-expressed CYPs were adjusted to 0.5 mg protein/mL by adding control microsomes expressing NADPH-P450 oxidoreductase and cytochrome b5. The reaction for the assay of FT metabolism was initiated by adding the substrate, following preincubation for 5 min at 37°C. After incubation at 37°C, the reaction was stopped by adding three volumes of ice-cold acetonitrile. The incubation times of microsomes, cytosol, and S9 were 15, 15, and 30 min, respectively. After centrifugation, the supernatant was collected and stored at −80°C until the determination of 5-FU. Because a small portion of FT is nonenzymatically converted to 5-FU, the content of 5-FU spontaneously formed was subtracted from total yield obtained after incubation to correct the activity. The spontaneous degradation of FT to 5-FU was evaluated using enzymes inactivated by heating them at 100°C for 5 min.
Concentration of 5-FU was determined using a LC/MS/MS system. The analytical system consisted of a HP1100 liquid chromatograph (Agilent Technologies, CA) coupled with an API4000 triple-quadrupole mass spectrometer (Applied Biosystems, CA) equipped with Turbo V source and ESI interface. Sample separation was performed using an Unison UK-Amino column (2.0 mm i.d. × 100 mm, 3 μm; Imtakt, Kyoto, Japan) at a flow rate of 0.2 mL/min at 40°C. The mobile phase consisted of 10 mmol/L ammonium acetate/acetonitrile 10:90 (v/v). […] For quantification of 5-FU, the calibration curves were linear over the range 2–1000 ng/mL.
Kinetic studies were performed using microsomes from five human livers (HG32, HH94, HH81, HH74, and HH31), cDNA-expressed CYP isoforms, or pooled human hepatic cytosol. In determining kinetic parameters, FT concentration ranged from 0.03 to 10 mmol/L. All reactions were performed in a linear range of 5-FU formation with respect to protein or CYP concentrations and incubation time.
Intrinsic clearance (CLint) was calculated as a ratio of V/S where V and S were the metabolite formation rate and the concentration of a probe substrate for CYP isoform, respectively, when the substrate concentration was well below the Km value. The RAF for each CYP isoform was calculated according to equation (3) (Venkatakrishnan et al. [2000]). [drawing 3] (3) n = 1A2, 2A6, 2C19, or 2E1.
The contribution of CYPn to the metabolism of R- and S-FT at their concentration of 30 μmol/L was subsequently calculated using equation (4). [drawing 4] (4) VCYPn = 5-FU formation rate in cDNA-expressed CYPn.

The structures appear in SMILES notation.

For orientation: Km means the concentration of substrate that gives half-maximal velocity.

Compound `O=c1[nH]c(=O)n([C@H]2CCCO2)cc1F` [R-FT] displayed a CYP contribution of 87.6%. Further, under “cDNA-expressed CYP2A6”, the CLint was 26 nL min^−1 pmol^−1 CYP, the Michaelis constant (Km) amounted to 170 ± 10 µM and the Vmax came to 4.5 ± 0.1 pmol min^−1 pmol^−1 CYP.

For `O=c1[nH]c(=O)n([C@@H]2CCCO2)cc1F` [S-FT], the CYP contribution turned out to be 84.8%. Also, where the note is “cDNA-expressed CYP2A6”, the CLint was found to be 4.9 nL min^−1 pmol^−1 CYP and the Vmax is recorded as 5.6 ± 0.3 pmol min^−1 pmol^−1 CYP.
